Reference: patent publication US20220305012A1, “L[…] TREATING SLEEP ISSUES” (EISAI R&D MANAGEMENT CO., LTD., priority 2019, published 2022)

Columns and labels:
Type in all cases: in vivo, human
[1] = system: Subjects Having Insomnia Disorder; test: Example 1: subjective sleep onset latency (sSOL), Sleep Diary
Source text: As used herein, the term “subjective sleep onset latency”, abbreviated as “sSOL”, means the estimated number of minutes from the time that the subject attempted to sleep until sleep onset. In some embodiments, sSOL is derived from data entered in a subject's Sleep Diary.
(§1) In some embodiments, sleep diaries were used to assess sleep parameters reported by subjects (i.e., subjective assessments) including subjective sleep onset latency (sSOL), subjective sleep efficiency (sSE), subjective WASO (sWASO), and subjective total sleep time (sTST). Subjects were instructed to complete the Sleep Diary developed based on the consensus Sleep Diary as described in Carney et al., “The consensus sleep diary: standardizing prospective sleep self-monitoring,” Sleep 2012; 35(2):287-302. In some embodiments, the Sleep Diary was used to assess the subject's global perception of quality of sleep on the previous night with the following question: “How would you rate the quality of your sleep last night?” Subjects rated the quality of their sleep on a scale from 1 to 9, with 1 being extremely poor and 9 being extremely good. In some embodiments, the Sleep Diary was used to assess subjective ratings of morning sleepiness with the following question: “How alert/sleepy do you feel this morning?” Subjects rated their sleepiness/alertness level on a Likert scale from 1 to 9, with 1 being extremely sleepy and 9 being extremely alert.
sSOL—subjective sleep onset latency: estimated minutes from the time that the subject attempted to sleep until sleep onset.
(§2) Subjects were randomized in a double-blind manner and received either placebo, 5 mg of lemborexant, or 10 mg of lemborexant (approximately 1:1:1 randomization). All subjects underwent routine safety monitoring through the study, including assessments of treatment-emergent adverse events, 12-lead electrocardiograms, vital signs, weight, and clinical hematology and blood chemistry labs. Suicidality was assessed using the eC-SSRS.
(§3) Treatment period 1 began with the first dose of randomized study medication (placebo, 5 mg of lemborexant, or 10 mg of lemborexant). Subjects completed sleep diaries daily in the morning, within one hour of waketime. The subjects were assessed by a clinician one month, two months, three months, and six months after initiation of Treatment period 1. The following assessments were conducted:
The primary endpoint was the mean change from study baseline in subjective sleep onset latency at month 6.

[2] = system: Subjects Having Insomnia Disorder; test: Example 1: subjective sleep efficiency (sSE), Sleep Diary
Source text: As used herein, the term “subjective sleep efficiency”, abbreviated as “sSE”, means the proportion of sTST per subjective time spent in bed, calculated as the interval from the time the subject reports attempting to sleep until the time the subject stopped trying to sleep for the night (operationalized as the time the subject got out of bed for the day), and time spent asleep derived from subjective time spent in bed minus sWASO. As used herein, an “improvement of sleep efficiency in Subjective Sleep Efficiency (sSE)” means an increase in sleep efficiency in Subjective Sleep Efficiency (sSE).
as §1
sSE—subjective sleep efficiency: proportion of sTST per subjective time spent in bed, calculated as the interval from the time the subject reports attempting to sleep until the time the subject stopped trying to sleep for the night (operationalized as the time the subject got out of bed for the day), and time spent asleep derived from subjective time in bed minus sWASO.
as §2, §3
This study had two key secondary endpoints. The first key secondary endpoint was the mean change from study baseline in subjective sleep efficiency at month 6. The second key secondary endpoint was the mean change from study baseline of subjective wake after sleep onset at month 6.

[3] = system: Subjects Having Insomnia Disorder; test: Example 2: minutes asleep in sleep stages (N1, N2, N3, REM, non-REM); conditions: both doses (FIG. 15)
Experimental: FIG. 13A, FIG. 13B, and FIG. 13C show the change from baseline (least squares mean) in the minutes asleep during Stage N1, Stage N2, and Stage N3 sleep, respectively, at Nights 1/2 and Nights 29/30 in patients treated with placebo, 6.25 mg of zolpidem, 5 mg of lemborexant, or 10 mg of lemborexant.

Cc1ncc(OC[C@@]2(c3cccc(F)c3)C[C@H]2C(=O)Nc2ccc(F)cn2)c(C)n1 [Lemborexant, (1R,2S)-2-(((2,4-dimethylpyrimidin-5-yl)oxy)methyl)-2-(3-fluorophenyl)-N-(5-fluoropyridin-2-yl)cyclopropanecarboxamide]
subjective sleep onset latency compared with placebo ([1]; 5 mg and 10 mg, at the equivalent timepoint (Table 2)): shorter subjective sleep onset latency than subjects treated with placebo | sSOL, Geometric Mean ([1]; 5 mg, First 7 Nights): 30.99 min | sSOL, Mean ([1]; 5 mg, First 7 Nights): 45.69 min | sSOL, Median ([1]; 5 mg, First 7 Nights): 36.58 min | sSOL, Geometric Mean ([1]; 5 mg, Month 1): 26.98 min | sSOL, Mean ([1]; 5 mg, Month 1): 41.89 min | sSOL, Median ([1]; 5 mg, Month 1): 32.50 min | sSOL, Geometric Mean ([1]; 5 mg, Month 3): 21.72 min | sSOL, Mean ([1]; 5 mg, Month 3): 34.31 min | sSOL, Median ([1]; 5 mg, Month 3): 24.79 min | sSOL, Geometric Mean ([1]; 5 mg, Month 6): 18.62 min | sSOL, Mean ([1]; 5 mg, Month 6): 29.49 min | sSOL, Median ([1]; 5 mg, Month 6): 22.29 min | sSOL, Geometric Mean ([1]; 5 mg, Study Baseline): 42.97 min | sSOL, Mean ([1]; 5 mg, Study Baseline): 62.19 min | sSOL, Median ([1]; 5 mg, Study Baseline): 53.57 min | sSOL Change from Study Baseline, Mean ([1]; 5 mg, after 1 Month): -19.41 min | sSOL Change from Study Baseline, Median ([1]; 5 mg, after 1 Month): -13.71 min | sSOL Change from Study Baseline, Mean ([1]; 5 mg, after 3 Months): -25.08 min | sSOL Change from Study Baseline, Median ([1]; 5 mg, after 3 Months): -20.71 min | sSOL Change from Study Baseline, Mean ([1]; 5 mg, after 6 Months): -29.39 min | sSOL Change from Study Baseline, Median ([1]; 5 mg, after 6 Months): -21.81 min | sSOL Change from Study Baseline, Mean ([1]; 5 mg, after 7 Nights): -16.86 min | sSOL Change from Study Baseline, Median ([1]; 5 mg, after 7 Nights): -11.00 min | sSOL, Geometric Mean ([1]; 10 mg, First 7 Nights): 30.77 min | sSOL, Mean ([1]; 10 mg, First 7 Nights): 45.94 min | sSOL, Median ([1]; 10 mg, First 7 Nights): 35.71 min | sSOL, Geometric Mean ([1]; 10 mg, Month 1): 27.14 min | sSOL, Mean ([1]; 10 mg, Month 1): 41.93 min | sSOL, Median ([1]; 10 mg, Month 1): 31.79 min | sSOL, Geometric Mean ([1]; 10 mg, Month 3): 22.71 min | sSOL, Mean ([1]; 10 mg, Month 3): 36.13 min | sSOL, Median ([1]; 10 mg, Month 3): 26.42 min | sSOL, Geometric Mean ([1]; 10 mg, Month 6): 19.35 min | sSOL, Mean ([1]; 10 mg, Month 6): 33.09 min | sSOL, Median ([1]; 10 mg, Month 6): 23.57 min | sSOL, Geometric Mean ([1]; 10 mg, Study Baseline): 45.05 min | sSOL, Mean ([1]; 10 mg, Study Baseline): 64.97 min | sSOL, Median ([1]; 10 mg, Study Baseline): 55.71 min | sSOL Change from Study Baseline, Mean ([1]; 10 mg, after 1 Month): -24.06 min | sSOL Change from Study Baseline, Median ([1]; 10 mg, after 1 Month): -19.86 min | sSOL Change from Study Baseline, Mean ([1]; 10 mg, after 3 Months): -27.94 min | sSOL Change from Study Baseline, Median ([1]; 10 mg, after 3 Months): -25.71 min | sSOL Change from Study Baseline, Mean ([1]; 10 mg, after 6 Months): -32.49 min | sSOL Change from Study Baseline, Median ([1]; 10 mg, after 6 Months): -28.21 min | sSOL Change from Study Baseline, Mean ([1]; 10 mg, after 7 Nights): -18.89 min | sSOL Change from Study Baseline, Median ([1]; 10 mg, after 7 Nights): -12.21 min | subjective sleep efficiency compared with placebo ([2]; 5 mg and 10 mg, at the equivalent timepoint (Table 3)): greater increase in subjective sleep efficiency than subjects treated with placebo | sSE, Mean ([2]; 5 mg, First 7 Nights): 69.97% | sSE, Median ([2]; 5 mg, First 7 Nights): 74.62% | sSE, Mean ([2]; 5 mg, Month 1): 71.56% | sSE, Median ([2]; 5 mg, Month 1): 76.35% | sSE, Mean ([2]; 5 mg, Month 3): 77.29% | sSE, Median ([2]; 5 mg, Month 3): 81.32% | sSE, Mean ([2]; 5 mg, Month 6): 78.55% | sSE, Median ([2]; 5 mg, Month 6): 82.02% | sSE, Mean ([2]; 5 mg, Study Baseline): 63.14% | sSE, Median ([2]; 5 mg, Study Baseline): 67.00% | sSE Change from Study Baseline, Mean ([2]; 5 mg, after 1 Month): 7.87% | sSE Change from Study Baseline, Median ([2]; 5 mg, after 1 Month): 6.75% | sSE Change from Study Baseline, Mean ([2]; 5 mg, after 3 Months): 13.03% | sSE Change from Study Baseline, Median ([2]; 5 mg, after 3 Months): 11.63% | sSE Change from Study Baseline, Mean ([2]; 5 mg, after 6 Months): 15.34% | sSE Change from Study Baseline, Median ([2]; 5 mg, after 6 Months): 13.33% | sSE Change from Study Baseline, Mean ([2]; 5 mg, after 7 Nights): 6.61% | sSE Change from Study Baseline, Median ([2]; 5 mg, after 7 Nights): 5.45% | sSE LSM treatment difference: Lemborexant-Placebo ([2]; 5 mg, change from Study Baseline after 1 Month): 2.227% | sSE LSM treatment difference: Lemborexant-Placebo ([2]; 5 mg, change from Study Baseline after 3 Months): 4.222% | sSE LSM treatment difference: Lemborexant-Placebo ([2]; 5 mg, change from Study Baseline after 6 Months): 4.549% | sSE LSM treatment difference: Lemborexant-Placebo ([2]; 5 mg, change from Study Baseline after 7 Nights): 4.299% | sSE, Mean ([2]; 10 mg, First 7 Nights): 69.96% | sSE, Median ([2]; 10 mg, First 7 Nights): 71.85% | sSE, Mean ([2]; 10 mg, Month 1): 71.04% | sSE, Median ([2]; 10 mg, Month 1): 74.70% | sSE, Mean ([2]; 10 mg, Month 3): 75.15% | sSE, Median ([2]; 10 mg, Month 3): 78.30% | sSE, Mean ([2]; 10 mg, Month 6): 76.53% | sSE, Median ([2]; 10 mg, Month 6): 80.22% | sSE, Mean ([2]; 10 mg, Study Baseline): 62.03% | sSE, Median ([2]; 10 mg, Study Baseline): 65.05% | sSE Change from Study Baseline, Mean ([2]; 10 mg, after 1 Month): 9.92% | sSE Change from Study Baseline, Median ([2]; 10 mg, after 1 Month): 9.00% | sSE Change from Study Baseline, Mean ([2]; 10 mg, after 3 Months): 13.61% | sSE Change from Study Baseline, Median ([2]; 10 mg, after 3 Months): 12.62% | sSE Change from Study Baseline, Mean ([2]; 10 mg, after 6 Months): 15.55% | sSE Change from Study Baseline, Median ([2]; 10 mg, after 6 Months): 13.91% | sSE Change from Study Baseline, Mean ([2]; 10 mg, after 7 Nights): 8.27% | sSE Change from Study Baseline, Median ([2]; 10 mg, after 7 Nights): 7.17% | sSE LSM treatment difference: Lemborexant-Placebo ([2]; 10 mg, change from Study Baseline after 1 Month): 3.615% | sSE LSM treatment difference: Lemborexant-Placebo ([2]; 10 mg, change from Study Baseline after 3 Months): 4.361% | sSE LSM treatment difference: Lemborexant-Placebo ([2]; 10 mg, change from Study Baseline after 6 Months): 4.667% | sSE LSM treatment difference: Lemborexant-Placebo ([2]; 10 mg, change from Study Baseline after 7 Nights): 5.793% | non-REM sleep [3]: greater increase in non-REM sleep compared to treatment with placebo and zolpidem ER
